Here are results for six substances from patent US8586611B2 (priority 2005, dated 2013).

Common to all, as to format: in vivo
Assay [1] relates to Pseudoperonospora cubensis. Put plainly: Test A: cucumber downy mildew, spray the day before inoculation (disease rating, 100 = 100% disease control). Particulars: spray the day before inoculation, compounds without asterisk (not 40 or 10 ppm). In outline:
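Cucumber seedlings were sprayed to run-off with compound suspended in acetone/water containing 250 ppm Trem 014 (200 ppm equated to 500 g/ha), then inoculated with P. cubensis spores the next day. Plants were kept 24 h at 20 °C in saturated humidity, then 6 days at 20 °C, before disease rating relative to controls.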

The next assay deals with Plasmopara viticola. In words: Test B: grape downy mildew, spray 24 h after inoculation (disease rating, 100 = 100% disease control). Particulars: spray 24 h after inoculation, compounds without asterisk (not 40 or 10 ppm). The procedure, abridged:
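This is a curative spray test, applied 24 h after inoculation. Compounds in 50/50 acetone–water with 250 ppm Trem 014 surfactant were sprayed to run-off on P. viticola-infected seedlings, with 200 ppm equating to 500 g/ha. Plants were kept 5 days in a 20 °C growth chamber, then 24 h humid, and scored 0–100 for disease control relative to controls.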

The test system of the next assay is Phytophthora infestans. In words: whole plant or invertebrate. Particulars: tomato late blight; spray the day before inoculation; compounds without asterisk (not 40 or 10 ppm).
In assay [2] the test system is Erysiphe graminis f. sp. tritici. In words: Test E: wheat powdery mildew, spray the day before inoculation (disease rating, 100 = 100% disease control). To be noted: spray the day before inoculation, compounds without asterisk (not 40 or 10 ppm). The procedure, abridged:
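Protective test: spores of E. graminis f. sp. tritici dusted on wheat seedlings one day after run-off spraying of test suspension (acetone/water with 250 ppm surfactant; 200 ppm = 500 g/ha). Ratings after 7 days in growth chamber at 20° C, 100 = full control, 0 = none, relative to controls.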

Assay [3] concerns Pseudoperonospora cubensis. In words: Test F: cucumber downy mildew, DMSO/acetone/water test suspension, spray the day before inoculation (disease rating, 100 = 100% disease control). Particulars: DMSO/acetone/water suspension, spray the day before inoculation, compounds without asterisk. In outline:
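Cucumber seedlings inoculated with spores one day after spraying with the test suspension (4% DMSO in acetone/water 30/70; 250 ppm ≈ 250 g/ha). Kept 24 h in saturated air, then 6 days in a growth chamber, both at 20° C. Scored as % disease control versus untreated (100 = full control).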

For “N-methyl-1-[1-[[5-methyl-3-(trifluoromethyl)-1H-pyrazol-1-yl]acetyl]-4-piperidinyl]-N-[(1R)-1,2,3,4-tetrahydro-1-naphthalenyl]-1H-pyrazole-3-carboxamide [Compound 231]”, in assay [1], the “Test A disease rating (100 = 100% disease control, 0 = no disease control)” value amounted to 100%. For the same substance, the “Test B disease rating (100 = 100% disease control, 0 = no disease control)” value with Plasmopara viticola is on record as 80%. The “Test C disease rating (100 = 100% disease control, 0 = no disease control)” value in the assay with Phytophthora infestans was determined as 100%. Also, the “Test E disease rating (100 = 100% disease control, 0 = no disease control)” value in assay [2] is given as 0%. Moreover, the “Test F disease rating (100 = 100% disease control, 0 = no disease control)” value in assay [3] stood at 96%.
As to “N-methyl-2-[1-[[5-methyl-3-(trifluoromethyl)-1H-pyrazol-1-yl]acetyl]-4-piperidinyl]-N-(1,2,3,4-tetrahydro-4-oxo-1-naphthalenyl)-4-thiazolecarboxamide [Compound 211]”, the “Test A disease rating (100 = 100% disease control, 0 = no disease control)” value in assay [1] came to 100%. Besides, in the assay on Plasmopara viticola, the “Test B disease rating (100 = 100% disease control, 0 = no disease control)” value was determined as 8%. For the same substance, in the assay with Phytophthora infestans, the “Test C disease rating (100 = 100% disease control, 0 = no disease control)” value is 99%. For the same substance, the “Test E disease rating (100 = 100% disease control, 0 = no disease control)” value in assay [2] is given as 0%. The “Test F disease rating (100 = 100% disease control, 0 = no disease control)” value in assay [3] is 92%.
Taken in the same sequence, the figures for “N-methyl-2-[1-[[5-methyl-3-(trifluoromethyl)-1H-pyrazol-1-yl]acetyl]-4-piperidinyl]-N-[(1R)-1,2,3,4-tetrahydro-1-naphthalenyl]-2H-1,2,3-triazole-4-carboxamide [Compound 232]” were 87%, 0%, 95%, 0% and 93%.
As to “N-methyl-2-[1-[[5-methyl-3-(trifluoromethyl)-1H-pyrazol-1-yl]acetyl]-4-piperidinyl]-N-[(1R)-1,2,3,4-tetrahydro-1-naphthalenyl]-4-oxazolecarboxamide [Compound 151]”, the “Test A disease rating (100 = 100% disease control, 0 = no disease control)” value in assay [1] is on record as 99%. The “Test B disease rating (100 = 100% disease control, 0 = no disease control)” value with Plasmopara viticola came out at 31%. In the assay on Phytophthora infestans, the “Test C disease rating (100 = 100% disease control, 0 = no disease control)” value stood at 29%. In assay [2], the “Test E disease rating (100 = 100% disease control, 0 = no disease control)” value amounted to 0%. Further, the “Test F disease rating (100 = 100% disease control, 0 = no disease control)” value in assay [3] was determined as 93%.
Taken in the same sequence, the figures for “N-methyl-2-[1-[[5-methyl-3-(trifluoromethyl)-1H-pyrazol-1-yl]acetyl]-4-piperidinyl]-N-[(1R)-1,2,3,4-tetrahydro-1-naphthalenyl]-4-thiazolecarbothioamide [Compound 289]” were 100%, 33%, 98%, 0% and 47%.
The corresponding values for “N-methyl-2-[1-[[5-methyl-3-(trifluoromethyl)-1H-pyrazol-1-yl]acetyl]-4-piperidinyl]-N-[(1R)-1-phenylpropyl]-4-thiazolecarboxamide [Compound 117]” are 100%, 67%, 96%, 50% and 86%.
